Source: PMC9181188 (International Journal of Molecular Sciences, 2022)
In brackets after ≈: the same amount, converted by molar mass. Read-outs that look alike come from different tables or passages of the source.

Key:
SW620 cells = assay: MTT assay, SW620; assay type: cell-based, human; settings: for IC50: Homo sapiens, SW-620, 72 h, human metastatic colon cancer, 72 h, MTT, mean ± SD; for SI SW620: SI = IC50 for normal cell line (HaCaT)/IC50 cancer cell line
M. tuberculosis H37Rv = assay: MABA (microplate Alamar blue assay) MIC; assay type: cell-based; settings: Mycobacterium tuberculosis, 336 h, read-out: MIC M. tuberculosis H37Rv
P. aeruginosa ATCC 27853 = assay: MIC, twofold microdilution, standard strain; assay type: cell-based; settings: Pseudomonas aeruginosa, read-out: MIC P. aeruginosa ATCC 27853
[1] = test system: SW480, SW620, and PC3 cancer cell lines; assay: MTT assay, cancer cell lines as a group; assay type: cell-based, human; settings: 72 h, all three cancer cell lines (SW480, SW620, PC3), read-out: IC50 against all tested cancer cell lines
E. coli ATCC 25922 = assay: MIC, twofold microdilution, standard strain; assay type: cell-based, Escherichia coli; settings: Escherichia coli, read-out: MIC E. coli ATCC 25922
S. aureus ATCC 29213 = assay: MIC, twofold microdilution, standard strain; assay type: cell-based; settings: Staphylococcus aureus, read-out: MIC S. aureus ATCC 29213
[2] = test system: S. epidermidis KR 4243 829/19; assay: MIC, clinical S. epidermidis strain; assay type: cell-based; settings: Staphylococcus epidermidis, KR4243829/19, quinolone-susceptible, 18 h of treatment
S. aureus ATCC 6538 = assay: MIC, twofold microdilution, standard strain; assay type: cell-based; settings: Staphylococcus aureus, read-out: MIC S. aureus ATCC 6538
HaCaT cells = assay: MTT assay, HaCaT normal cells; assay type: cell-based; settings: human immortal keratinocyte cell line, 72 h, mean ± SD
[3] = test system: S. epidermidis KR 4358/2 840/19; assay: MIC, clinical S. epidermidis strain; assay type: cell-based; settings: Staphylococcus epidermidis, read-out: MIC KR 4358/2 840/19
[4] = test system: S. epidermidis T 5253 845/19; assay: MIC, clinical S. epidermidis strain; assay type: cell-based; settings: Staphylococcus epidermidis, T5253845/19, quinolone-resistant, 18 h of treatment
SW480 cells = assay: MTT assay, SW480; assay type: cell-based, human; settings: for IC50: human primary colon cancer, 72 h, MTT, mean ± SD; for SI SW480: SI = IC50 for normal cell line (HaCaT)/IC50 cancer cell line
[5] = test system: M. tuberculosis Spec. 192 (Sensitive to Tuberculostatics); assay: MABA (microplate Alamar blue assay) MIC; assay type: cell-based; settings: Mycobacterium tuberculosis, 336 h, read-out: MIC M. tuberculosis Spec. 192 (Sensitive to Tuberculostatics)
[6] = test system: S. epidermidis T 5399 848/19; assay: MIC, clinical S. epidermidis strain; assay type: cell-based; settings: Staphylococcus epidermidis, T5399848/19, quinolone-susceptible, 18 h of treatment
[7] = test system: S. epidermidis KR 4047 825/19; assay: MIC, clinical S. epidermidis strain; assay type: cell-based; settings: Staphylococcus epidermidis, KR4047825/19, quinolone-resistant, 18 h of treatment
[8] = test system: S. epidermidis T 5501 851/19; assay: MIC, clinical S. epidermidis strain; assay type: cell-based; settings: Staphylococcus epidermidis, T5501851/19, read-out: MIC T 5501 851/19, quinolone-susceptible, 18 h of treatment
S. aureus ATCC 25923 = assay: MIC, twofold microdilution, standard strain; assay type: cell-based; settings: Staphylococcus aureus, read-out: MIC S. aureus ATCC 25923
[9] = test system: S. epidermidis ATCC 12228; assay: MIC, twofold microdilution, standard strain; assay type: cell-based; settings: Staphylococcus epidermidis, read-out: MIC S. epidermidis ATCC 12228
[10] = test system: S. epidermidis ATCC 35984; assay: MIC, twofold microdilution, standard strain; assay type: cell-based; settings: Staphylococcus epidermidis, read-out: MIC S. epidermidis ATCC 35984
S. aureus NCTC 4163 = assay: MIC, twofold microdilution, standard strain; assay type: cell-based; settings: Staphylococcus aureus, read-out: MIC S. aureus NCTC 4163
[11] = test system: S. epidermidis KR 4313 834/19; assay: MIC, clinical S. epidermidis strain; assay type: cell-based; settings: Staphylococcus epidermidis, KR4313834/19, quinolone-susceptible, 18 h of treatment
[12] = test system: standard staphylococci (S. aureus, S. epidermidis); assay: MIC, standard Gram-positive strains as a group; assay type: cell-based; settings: Staphylococcus aureus; range over standard Gram-positive strains; read-out: MIC against standard staphylococci
PC3 cells = assay: MTT assay, PC3; assay type: cell-based, human; settings: for IC50: human metastatic prostate cancer, 72 h, MTT, mean ± SD; for SI PC3: SI = IC50 for normal cell line (HaCaT)/IC50 cancer cell line
M. tuberculosis strains = assay: MABA MIC, mycobacterial strains as a group; assay type: cell-based; settings: Mycobacterium tuberculosis; summary over strains; read-out: MIC antimycobacterial (strain not specified)
[13] = KR4358/2840/19, clinical S. epidermidis, quinolone-susceptible, 18 h of treatment

Compound | IC50 (SW620 cells) [µM] | SI SW620 (SW620 cells) | MIC [2] [µg/mL] | IC50 (HaCaT cells) [µM] | MIC [4] [µg/mL] | IC50 (SW480 cells; Homo sapiens, SW480, 72 h) [µM] | SI SW480 (SW480 cells) | MIC [6] [µg/mL] | MIC [7] [µg/mL] | MIC [8] [µg/mL] | MIC [11] [µg/mL] | MIC [12] [µg/mL] | IC50 (PC3 cells; Homo sapiens, PC-3, 72 h) [µM] | SI PC3 (PC3 cells) | MIC (M. tuberculosis H37Rv; 2 weeks of treatment) [µg/mL] | MIC (P. aeruginosa ATCC 27853; ATCC27853, 18 h of treatment) [µg/mL] | MIC (E. coli ATCC 25922; ATCC25922, 18 h of treatment) [µg/mL] | MIC (S. aureus ATCC 29213; ATCC29213, 18 h of treatment) [µg/mL] | MIC (S. aureus ATCC 6538; ATCC6538, 18 h of treatment) [µg/mL] | MIC [3, 13] [µg/mL] | further results
CCCCCCCCCCCCCCCC(=O)N1CCC[C@H]2CN(c3c(F)cc4c(=O)c(C(=O)O)cn(C5CC5)c4c3OC)C[C@H]21 [Compound 9m, 1-Cyclopropyl-6-fluoro-7-(1-hexadecanoyl-octahydro-pyrrolo[3,4-b]pyridin-6-yl)-8-methox-4-oxo-1,4-dihydro-quinoline-3-carboxylic acid] | 10.4 ± 1.4 | 9.3 | 512 (≈ 800 µM) | 96.7 ± 2.6 | 512 (≈ 800 µM) | 9.4 ± 2.3 | 10.3 | 512 (≈ 800 µM) | 512 (≈ 800 µM) | 512 (≈ 800 µM) | 512 (≈ 800 µM) | > 32 | 8.1 ± 1.5 | 11.9 | – | – | – | – | – | – | MIC (M. tuberculosis H37Rv): > 512 µg/mL; MIC (P. aeruginosa ATCC 27853; ATCC27853, 18 h): > 512 µg/mL; IC50 ([1]; Homo sapiens): 5 to 10 µM; IC50 [1]: 5.6 to 10.4 µM; MIC (E. coli ATCC 25922; ATCC25922, 18 h): > 512 µg/mL; MIC (S. aureus ATCC 29213; ATCC29213, 18 h): > 512 µg/mL; MIC (S. aureus ATCC 6538; ATCC6538, 18 h): > 512 µg/mL; MIC ([3]; KR4358/2840/19, 18 h): > 512 µg/mL; MIC [5]: > 512 µg/mL; MIC (S. aureus ATCC 25923; ATCC25923, 18 h): > 512 µg/mL; MIC ([9]; ATCC12228, 18 h): > 512 µg/mL; MIC ([10]; ATCC35984, 18 h): > 512 µg/mL; MIC (S. aureus NCTC 4163; NCTC4163, 18 h): > 512 µg/mL
CCCCC/C=C\C/C=C\CCCCCCCC(=O)N1CCCC2CN(c3c(F)cc4c(=O)c(C(=O)O)cn(C5CC5)c4c3OC)CC21 (stereo not drawn) [Compound 11m, 1-Cyclopropyl-6-fluoro-8-methoxy-7-{1-(9Z,12Z)-octadeca-9,12-dienoyl-octahydropyrrolo-[3,4-b]pyridin-6-yl)-4-oxo-1,4-dihydro-quinoline-3-carboxylic acid] | 7.3 ± 0.9 | 12.5 | 256 (≈ 386 µM) | 91.4 ± 5.3 | 512 (≈ 771 µM) | < 5 | 19.0 | 512 (≈ 771 µM) | 512 (≈ 771 µM) | 512 (≈ 771 µM) | 64 (≈ 96.4 µM) | > 32 | < 5 | 25.4 | 512 (≈ 771 µM) | > 512 | > 512 | > 512 | > 512 | 128 (≈ 193 µM) | IC50 (SW480 cells): 4.8 ± 1.3 µM; MIC ([5]; 2 weeks of treatment): 128 µg/mL (≈ 193 µM); MIC (S. aureus ATCC 25923; ATCC25923, 18 h of treatment): > 512 µg/mL; MIC ([9]; ATCC12228, 18 h of treatment): > 512 µg/mL; MIC ([10]; ATCC35984, 18 h of treatment): > 512 µg/mL; MIC (S. aureus NCTC 4163; NCTC4163, 18 h of treatment): > 512 µg/mL; MIC (M. tuberculosis strains): ≥ 128 µg/mL; IC50 (PC3 cells): 3.6 ± 1.1 µM
CCCCC/C=C\C/C=C\C/C=C\CCCCC(=O)N1CCCC2CN(c3c(F)cc4c(=O)c(C(=O)O)cn(C5CC5)c4c3OC)CC21 (stereo not drawn) [Compound 12m, 1-Cyclopropyl-6-fluoro-8-methoxy-7-{1-(6Z,9Z,12Z)-octadeca-6,9,12-trienoyl-octahydro-pyrrolo[3,4-b]pyridin-6-yl}-4-oxo-1,4-dihydro-quinoline-3-carboxylic acid] | 18.3 ± 3.2 | 4.8 | 32 (≈ 48.3 µM) | 88.7 ± 3.3 | 512 (≈ 774 µM) | 16.8 ± 2.3 | 5.3 | 32 (≈ 48.3 µM) | 256 (≈ 387 µM) | 32 (≈ 48.3 µM) | 256 (≈ 387 µM) | > 32 | 14.7 ± 2.3 | 6.0 | 64 (≈ 96.7 µM) | > 512 | 128 (≈ 193 µM) | 64 (≈ 96.7 µM) | 64 (≈ 96.7 µM) | 512 (≈ 774 µM) | MIC ([5]; 2 weeks of treatment): 64 µg/mL (≈ 96.7 µM); MIC (S. aureus ATCC 25923; ATCC25923, 18 h of treatment): 64 µg/mL (≈ 96.7 µM); MIC ([9]; ATCC12228, 18 h of treatment): 64 µg/mL (≈ 96.7 µM); MIC ([10]; ATCC35984, 18 h of treatment): 32 µg/mL (≈ 48.3 µM); MIC (S. aureus NCTC 4163; NCTC4163, 18 h of treatment): 64 µg/mL (≈ 96.7 µM); MIC (M. tuberculosis strains): 64 µg/mL (≈ 96.7 µM)
